Reference: PubChem BioAssay (NCI)
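Where inhibition never reached the appropriate level, the endpoint shown equals the highest concentration tested. Otherwise, values were interpolated linearly from a five-concentration, 48-hour dose response in 96-well plates. GI50 marks 50% less growth. TGI denotes the concentration required for complete inhibition of growth.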

How the values were obtained:
Experiment in all cases: growth of human tumour cells (NCI), 48 h
[1] = test system: KM12 colon
[2] = test system: U251 CNS
[3] = test system: HL-60(TB) leukemia
[4] = test system: SK-OV-3 ovarian
[5] = test system: MALME-3M melanoma
[6] = test system: SK-MEL-28 melanoma
[7] = test system: K-562 leukemia
[8] = test system: A498 renal
[9] = test system: LOX IMVI melanoma
[10] = test system: MCF7 breast
[11] = test system: NCI-H226 lung
[12] = test system: UACC-62 melanoma
[13] = test system: MDA-MB-231 breast
[14] = test system: MOLT-4 leukemia
[15] = test system: SF-295 CNS
[16] = test system: EKVX NSCLC
[17] = test system: NCI/ADR-RES ovarian
[18] = test system: SNB-75 CNS
[19] = test system: M14 melanoma
[20] = test system: IGROV1 ovarian
[21] = test system: RPMI-8226 leukemia
[22] = test system: CCRF-CEM leukemia
[23] = test system: COLO 205 colon
[24] = test system: NCI-H23 lung
[25] = test system: HCT-116 colon
[26] = test system: NCI-H522 lung
[27] = test system: SK-MEL-2 melanoma
[28] = test system: UO-31 renal
[29] = test system: A549 NSCLC
[30] = test system: PC-3 prostate
[31] = test system: SK-MEL-5 melanoma
[32] = test system: SF-539 CNS
[33] = test system: TK-10 renal
[34] = test system: RXF 393 renal
[35] = test system: OVCAR-4 ovarian
[36] = test system: HS 578T breast
[37] = test system: 786-0 renal
[38] = test system: CAKI-1 renal
[39] = test system: UACC-257 melanoma
[40] = test system: SNB-19 CNS
[41] = test system: SW-620 colon
[42] = test system: T-47D breast
[43] = test system: MDA-N
[44] = test system: HOP-92 NSCLC
[45] = test system: ACHN renal
[46] = test system: HCT-15 colon
[47] = test system: SN12C renal
[48] = test system: SF-268 CNS
[49] = test system: NCI-H460 lung
[50] = test system: HOP-62 NSCLC
[51] = test system: SR leukemia
[52] = test system: HCC-2998 colon
[53] = test system: HT29 colon
[54] = test system: DU-145 prostate
[55] = test system: BT-549 breast
[56] = test system: OVCAR-8 ovarian
[57] = test system: OVCAR-5 ovarian
[58] = test system: OVCAR-3 ovarian
[59] = test system: MDA-MB-435

SMILES: ClC1=C(Cl)C(Cl)(Cl)SS1
- TGI [1]: > 10000 nM
- TGI [2]: > 10000 nM
- TGI [3]: > 7320 nM
- TGI [4]: > 10000 nM
- TGI [5]: > 6610 nM
- TGI [6]: > 10000 nM
- TGI [7]: > 7820 nM
- TGI [8]: > 10000 nM
- TGI [9]: > 10000 nM
- TGI [10]: > 10000 nM
- TGI [11]: > 10000 nM
- TGI [12]: > 10000 nM
- TGI [13]: > 10000 nM
- TGI [14]: 3610 nM
- TGI [15]: > 10000 nM
- TGI [16]: > 10000 nM
- TGI [17]: > 10000 nM
- TGI [18]: > 10000 nM
- TGI [19]: > 10000 nM
- TGI [20]: > 10000 nM
- TGI [21]: 6730 nM
- TGI [22]: > 8000 nM
- TGI [23]: 3730 nM
- TGI [24]: > 10000 nM
- TGI [25]: > 6720 nM
- TGI [26]: > 6850 nM
- TGI [27]: > 10000 nM
- TGI [28]: > 6060 nM
- TGI [29]: > 10000 nM
- TGI [30]: > 10000 nM
- TGI [31]: > 10000 nM
- TGI [32]: > 10000 nM
- TGI [33]: > 10000 nM
- TGI [34]: > 10000 nM
- TGI [35]: 9810 nM
- TGI [36]: > 10000 nM
- TGI [37]: > 6030 nM
- TGI [38]: 6760 nM
- TGI [39]: > 7950 nM
- TGI [40]: > 10000 nM
- TGI [41]: 5820 nM
- TGI [42]: > 10000 nM
- TGI [43]: > 10000 nM
- TGI [44]: > 8630 nM
- TGI [45]: > 10000 nM
- TGI [46]: > 10000 nM
- TGI [47]: > 10000 nM
- TGI [48]: > 10000 nM
- TGI [49]: > 10000 nM
- TGI [50]: > 10000 nM
- TGI [51]: 5350 nM
- TGI [52]: > 10000 nM
- TGI [53]: > 10000 nM
- TGI [54]: > 10000 nM
- TGI [55]: > 10000 nM
- TGI [56]: > 10000 nM
- TGI [57]: > 10000 nM
- TGI [58]: > 9500 nM
- TGI [59]: > 10000 nM

SMILES: COc1ccc2nc3cccc([N+](=O)[O-])c3c(NCCNCCO)c2c1
- GI50 [1]: 60 nM
- TGI [1]: 250 nM
- GI50 [2]: 22.6 nM
- TGI [2]: 155 nM
- GI50 [3]: 21.2 nM
- TGI [3]: 4140 nM
- GI50 [4]: 45.9 nM
- TGI [4]: 388 nM
- GI50 [5]: 25 nM
- TGI [5]: 124 nM
- GI50 [6]: 102 nM
- TGI [6]: 352 nM
- GI50 [7]: 15.3 nM
- TGI [7]: 121 nM
- GI50 [8]: 26.2 nM
- TGI [8]: 70.9 nM
- GI50 [9]: 18.4 nM
- TGI [9]: 72.1 nM
- GI50 [10]: 10.2 nM
- TGI [10]: 100 nM
- GI50 [11]: 52.2 nM
- TGI [11]: 340 nM
- GI50 [12]: 16.2 nM
- TGI [12]: 39.7 nM
- GI50 [13]: 411 nM
- TGI [13]: 8250 nM
- GI50 [14]: 20.7 nM
- TGI [14]: 229 nM
- GI50 [15]: 23.8 nM
- TGI [15]: 188 nM
- GI50 [16]: 104 nM
- TGI [16]: 426 nM
- GI50 [17]: 660 nM
- TGI [17]: 6700 nM
- GI50 [18]: 36.7 nM
- TGI [18]: 151 nM
- GI50 [19]: 19.8 nM
- TGI [19]: 53.4 nM
- GI50 [20]: 17.3 nM
- TGI [20]: 71.7 nM
- GI50 [21]: 19.8 nM
- TGI [21]: 111 nM
- GI50 [22]: 24 nM
- TGI [22]: 173 nM
- GI50 [23]: 13.7 nM
- TGI [23]: 54.5 nM
- GI50 [24]: 104 nM
- TGI [24]: 2700 nM
- GI50 [25]: 19.6 nM
- TGI [25]: 753 nM
- TGI [26]: 14.6 nM
- GI50 [27]: 16.7 nM
- TGI [27]: 34.4 nM
- GI50 [28]: 106 nM
- TGI [28]: 336 nM
- GI50 [29]: 27.4 nM
- TGI [29]: 119 nM
- TGI [30]: 130 nM
- GI50 [31]: 11.3 nM
- TGI [31]: 25.8 nM
- GI50 [32]: 43.3 nM
- TGI [32]: 186 nM
- GI50 [33]: 29.1 nM
- TGI [33]: 272 nM
- GI50 [34]: 18.7 nM
- TGI [34]: 47.4 nM
- GI50 [35]: 19.9 nM
- TGI [35]: 51.5 nM
- GI50 [36]: 50.1 nM
- TGI [36]: 361 nM
- GI50 [37]: 21.2 nM
- TGI [37]: 102 nM
- GI50 [38]: 39.6 nM
- TGI [38]: 502 nM
- GI50 [39]: 51.8 nM
- TGI [39]: 189 nM
- GI50 [40]: 130 nM
- TGI [40]: 636 nM
- GI50 [41]: 19.8 nM
- TGI [41]: 610 nM
- GI50 [42]: 81.3 nM
- TGI [42]: 619 nM
- GI50 [43]: 37 nM
- TGI [43]: 156 nM
- GI50 [44]: 23 nM
- TGI [44]: 64.9 nM
- GI50 [45]: 15.9 nM
- TGI [45]: 70.1 nM
- GI50 [46]: 206 nM
- GI50 [47]: 46.8 nM
- TGI [47]: 306 nM
- GI50 [48]: 18.4 nM
- TGI [48]: 92.5 nM
- GI50 [49]: 11.4 nM
- TGI [49]: 102 nM
- GI50 [50]: 35.2 nM
- TGI [50]: 169 nM
- GI50 [51]: 16.7 nM
- TGI [51]: 3280 nM
- GI50 [52]: 41.7 nM
- TGI [52]: 206 nM
- GI50 [53]: 12 nM
- TGI [53]: 99.1 nM
- GI50 [54]: 10.4 nM
- TGI [54]: 746 nM
- GI50 [55]: 51 nM
- TGI [55]: 173 nM
- GI50 [56]: 13 nM
- TGI [56]: 151 nM
- GI50 [57]: 32.7 nM
- TGI [57]: 185 nM
- GI50 [58]: 26.5 nM
- TGI [58]: 66.7 nM
- GI50 [59]: 25.6 nM
- TGI [59]: 90.3 nM
